Data published in PubChem BioAssay (NCI).
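96-well plates; 48 h exposure; 5 concentrations. Endpoints by linear interpolation between flanking doses. Not reached: highest tested concentration assigned. Abbreviation: GI50, concentration required for 50% inhibition of growth. At the TGI there is no net growth.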

What follows are compounds tested on NCI-H460 lung (assay: NCI anticancer screen, dose series, 48 h).

In order of rising GI50:
1. CC1(C)[C@@H](OC(N)=O)[C@H]2O[C@H]2[C@]2(C=O)[C@H]3CC[C@]4(C)[C@@H](c5ccc(=O)oc5)[C@@H](Cl)C[C@]4(O)C3=CC[C@@H]12  0.00347 µM
2. CCn1c(SCc2ccc(C)cc2)nnc1-c1nn(-c2ccc(Cl)cc2Cl)c(-c2ccc(Cl)cc2)c1C  1.46 µM
3. COc1cccc2c(=O)c3c(sc12)c(N1CCNCC1)nc1ccccc13  1.72 µM
4. COc1ccc(/C=C/C(=O)C(CC2CCC2)C(=O)/C=C/c2ccc(OC)c(OC)c2)cc1OC  2.01 µM
5. CC(C)C[C@H](NC(=O)/C=C/Cn1ccc2ccccc2c1=O)B(O)O  12.7 µM
6. O=C1CSC(c2ccc(Cl)cc2Cl)N1c1ccc(F)cc1 (stereo not drawn)  16 µM
7. O=C(/C=C\c1ccc(NCc2ccc(C(=O)O)cc2)cc1)CCl  17 µM
8. CCCCON(OC(=O)c1ccc2ccc3cccc4ccc1c2c34)C(C)=O  32.1 µM
9. Cc1[nH]c2ccccc2c(=O)c1CC=C(Cl)Cl  72.5 µM

Compared with `CC1(C)[C@@H](OC(N)=O)[C@H]2O[C@H]2[C@]2(C=O)[C@H]3CC[C@]4(C)[C@@H](c5ccc(=O)oc5)[C@@H](Cl)C[C@]4(O)C3=CC[C@@H]12`, `COc1ccc(/C=C/C(=O)C(CC2CCC2)C(=O)/C=C/c2ccc(OC)c(OC)c2)cc1OC` is 540-fold higher in TGI: 0.0077 µM for the first, 4.14 µM for the second.

Going from `CCCCON(OC(=O)c1ccc2ccc3cccc4ccc1c2c34)C(C)=O` to `O=C(/C=C\c1ccc(NCc2ccc(C(=O)O)cc2)cc1)CCl`, the TGI falls from greater than 100 µM to 34.3 µM.

`Cc1[nH]c2ccccc2c(=O)c1CC=C(Cl)Cl` and `COc1c(CCl)cc(-c2cc(=O)c3ccccc3s2)cc1CCl` cannot be ordered by TGI: greater than 100 µM for the first, greater than 100 µM for the second.

Compared with `Clc1ccc(C=Nc2ccc3c(c2)Cc2ccccc2-3)c(Cl)c1`, `O=C1CSC(c2ccc(Cl)cc2Cl)N1c1ccc(F)cc1` (stereo not drawn) is lower in TGI: greater than 100 µM for the first, 29.9 µM for the second.

Going from `COc1ccc(/C=C/c2cc(OC)cc(=O)o2)cc1` to `COc1cccc2c(=O)c3c(sc12)c(N1CCNCC1)nc1ccccc13`, the TGI falls from greater than 100 µM to 3.41 µM.

Going from `CC(C)C[C@H](NC(=O)/C=C/Cn1ccc2ccccc2c1=O)B(O)O` to `CCn1c(SCc2ccc(C)cc2)nnc1-c1nn(-c2ccc(Cl)cc2Cl)c(-c2ccc(Cl)cc2)c1C`, the TGI falls from 97.5 µM to 10.5 µM (9.3-fold).

Each compound was assayed on IGROV1 ovarian (assay: NCI anticancer screen, dose series, 48 h).

Going from `Nc1ccc(-c2nc3ccc(Cc4ccc5nc(-c6ccc(N)cc6)[nH]c5c4)cc3[nH]2)cc1` to `O=S(=O)(Nc1cc(Sc2cccc3cccnc23)c(O)c2ccccc12)c1ccccc1`, the GI50 falls from 16.9 µM to 1.01 µM (17-fold).

Going from `CN(C)C(=O)[C@H](O)[C@H](Cc1ccccc1)NC(=O)c1cc2cc(Cl)ccc2[nH]1` to `CC(C)C[C@H](NC(=O)/C=C/Cn1ccc2ccccc2c1=O)B(O)O`, the GI50 falls from 22.4 µM to 10.8 µM (2.1-fold).

Going from `CC(C)(C[C@H]1CN(S(=O)(=O)c2cccc(C(F)(F)F)c2)c2cc(-c3cc(F)cc(OC(F)F)c3)ccc2O1)C(=O)O` to `CCCCON(OC(=O)c1ccc2ccc3cccc4ccc1c2c34)C(C)=O`, the GI50 rises from 9.43 µM to 16.5 µM (1.7-fold).

`CCSc1nc(SCC)c2cn[nH]c2n1` and `Cn1c(=O)c(Cc2ccccc2F)cc2cnc(NC3CCOCC3)nc21` cannot be ordered by GI50: 49 µM for the first, greater than 25 µM for the second.

Compared with `COc1ccc(CCN2COc3c([C@@H](C)CCC=C(C)C)ccc(C)c3C2)cc1OC`, `COc1cc(/C=C/c2cc(/C=C/c3ccc(O)c(OC)c3)n(C(=O)Nc3ccc(C)cc3C)n2)ccc1O` is 2.3-fold lower in GI50: 1.08 µM for the first, 0.464 µM for the second.

First: COc1cc(C(=O)c2cc(C)c3[nH]c4ccc(C)cc4c3c2C)cc(OC)c1OC
Second: Cc1ccc2[nH]c(O)c(N=Nc3ccc(S(N)(=O)=O)cc3)c2c1
The GI50 of the first is lower: less than 0.01 µM for the first, greater than 16.1 µM for the second.

Going from `CC1(C)[C@@H](OC(N)=O)[C@H]2O[C@H]2[C@]2(C=O)[C@H]3CC[C@]4(C)[C@@H](c5ccc(=O)oc5)[C@@H](Cl)C[C@]4(O)C3=CC[C@@H]12` to `O=C(/C=C\c1ccc(NCc2ccc(C(=O)O)cc2)cc1)CCl`, the GI50 rises from 0.00836 µM to 16.7 µM (2000-fold).

Going from `Cc1[nH]c2ccccc2c(=O)c1CC=C(Cl)Cl` to `O=C1CSC(c2ccc(Cl)cc2Cl)N1c1ccc(F)cc1` (stereo not drawn), the GI50 falls from 64.2 µM to 16.1 µM (4-fold).

Going from `Nc1ccc(-c2nc3ccc(Cc4ccc5nc(-c6ccc(N)cc6)[nH]c5c4)cc3[nH]2)cc1` to `O=S(=O)(Nc1cc(Sc2cccc3cccnc23)c(O)c2ccccc12)c1ccccc1`, the TGI falls from 39.8 µM to 6 µM (6.6-fold).

Going from `CN(C)C(=O)[C@H](O)[C@H](Cc1ccccc1)NC(=O)c1cc2cc(Cl)ccc2[nH]1` to `CC(C)C[C@H](NC(=O)/C=C/Cn1ccc2ccccc2c1=O)B(O)O`, the TGI rises from 69.1 µM to greater than 100 µM.

First: CC(C)(C[C@H]1CN(S(=O)(=O)c2cccc(C(F)(F)F)c2)c2cc(-c3cc(F)cc(OC(F)F)c3)ccc2O1)C(=O)O
Second: CCCCON(OC(=O)c1ccc2ccc3cccc4ccc1c2c34)C(C)=O
The TGI of the first is 2-fold lower: 27.6 µM for the first, 55.2 µM for the second.

`O=C(O)C1C(Br)(c2ccccc2)C1(Br)c1ccccc1` (stereo not drawn) and `Clc1ccc(C=Nc2ccc3c(c2)Cc2ccccc2-3)c(Cl)c1` cannot be ordered by TGI: greater than 100 µM for the first, greater than 100 µM for the second.

`CCSc1nc(SCC)c2cn[nH]c2n1` and `Cn1c(=O)c(Cc2ccccc2F)cc2cnc(NC3CCOCC3)nc21` cannot be ordered by TGI: greater than 100 µM for the first, greater than 25 µM for the second.

Going from `ClCC[N+]12CC[N+](CCCl)(CC1)C2` to `COc1ccc(CCN2COc3c([C@@H](C)CCC=C(C)C)ccc(C)c3C2)cc1OC`, the TGI falls from greater than 100 µM to 3.52 µM.

Compared with `COc1cc(/C=C/c2cc(/C=C/c3ccc(O)c(OC)c3)n(C(=O)Nc3ccc(C)cc3C)n2)ccc1O`, `COc1ccc(/C=C/c2cc(OC)cc(=O)o2)cc1` is higher in TGI: 2.76 µM for the first, greater than 100 µM for the second.

Going from `C=C1C(=O)OC2/C=C(\COC(C)=O)CCC(OC(C)=O)C3=CC(OC3=O)C12` (stereo not drawn) to `CC1(C)[C@@H](OC(N)=O)[C@H]2O[C@H]2[C@]2(C=O)[C@H]3CC[C@]4(C)[C@@H](c5ccc(=O)oc5)[C@@H](Cl)C[C@]4(O)C3=CC[C@@H]12`, the TGI falls from greater than 56.3 µM to 0.0362 µM.

`Cc1ccc2[nH]c(O)c(N=Nc3ccc(S(N)(=O)=O)cc3)c2c1` and `Cc1[nH]c2ccccc2c(=O)c1CC=C(Cl)Cl` cannot be ordered by TGI: greater than 25 µM for the first, greater than 100 µM for the second.

Going from `C/C(N=NC(=S)N(C)C)=C1\C=CC=CN1O` to `O=C(/C=C\c1ccc(NCc2ccc(C(=O)O)cc2)cc1)CCl`, the TGI falls from greater than 100 µM to 37.2 µM.

With `O=C1CSC(c2ccc(Cl)cc2Cl)N1c1ccc(F)cc1` (stereo not drawn) the TGI was 33.1 µM.
